# Values joined by “and” are separate entries in the source; they are usually repeats but may differ in a detail not shown here. Equal values may be shown once.
# Columns and labels:
# [1] = tested on: Chromo bacterium violaceum; test: Agar disc diffusion antibacterial test; conditions: for Inhibition %: (T–C)/T × 100
# BSA = molecular target: T1, BSA (Bos taurus, UniProt P02769); test: Förster's theory-based FRET computation, donor (BSA)–acceptor (compound); assay type: binding, bovine; parameters: kET (rate of exchange resonance energy transfer): unit not given here; conditions: for J (normalized spectral overlap integral): BSA emission vs compound absorption; for kET (rate of exchange resonance energy transfer) / r (donor-acceptor separation): BSA–compound; for E (efficiency of energy transfer): E=1−F/F0; for B (average brightness of the complex-BSA system): free BSA = 6573.60 M^−1 cm^−1; for R0 (critical distance, 50% energy transfer): n = 1.36, Φ = 0.15, K^2 = 2/3
# T1 construct: purchased Sigma Aldrich
# From the text: As per Förster’s theory, the critical distance of the donor-acceptor system can be determined with the supporting of the FRET approach to assess the binding affinity between BSA-substance systems. […]
# excitation and emission directions, respectively. Also, the alteration in absorbance (OD) at the excitation and fluorescence wavelengths, respectively, is sometimes referred to as A ex and […]
# F = 1+KSV [Q] = 1+ Kq τ0 (S13)
# Where [Q] is represented as the sample concentration (quencher), the emission intensities F 0 and F are those in the […] of the quencher, respectively.
# F ) = log Kass + nlog [Q] (S14)
# KEB[EB] = Kapp[compound] (S15)
# ∆F = (F 0–F), Equation (16) was utilized to examine the Lineweaver –Burk binding constant (KLB) from the linear regression plot of 1/(F0–F) vs 1/[Q]. […]
# γ =(F0–F)/F0, CF is denoted as the concentration of sample alone, the linear regression plot of (γ/CF) vs γ was employed to support equation (17), which was used to determine the values of KSA and n, respectively.
# 2.2.6. FRET calculation by Förster’s theory
# Calculating FRET (Fluorescence Resonance Energy Transfer) is a crucial approach in determining the critical distance (r) between donor (BSA) and acceptor (test compound) molecules, in which the binding affinity between the BSA-complex systems could be evalued according to Förster’s theory. The overlap of the emission spectrum of the donor (BSA) and the absorption spectrum of the acceptor (compound) describes that the acceptor (compound) group may get excited as a result of the excited donor's (BSA) energy being lost to the ground […]
# The relative orientation factor of the dipoles (K 2) is associated with the geometry of the BSA and complex of the dipoles, the value for random orientation (K 2 = 2/3) like in a fluid […]
# F(λ) is represented as the corrected or the normalized emission intensity(OD) of the bovine serum albumin in the range of λ–(λ+∆λ), ε(λ) is denoted as the molar extinction coefficient of […]
# The radiative, non-radiative decay and quenching rate constants are denoted as k r, knr and kq, respectively, and the concentration of complex (quenching species) is described as [Q].
# EB–DNA = test: Ethidium bromide displacement assay by fluorescence spectral titration; assay type: binding, calf; conditions: Kapp=KEB[EB]/[compound], KEB = 10^7 M^−1 at 50 µM EB; compound concentration at 50% reduction of EB fluorescence
# [2] = Nitric oxide scavenging assay; assay type: biochemical; conditions: 546 nm
# CT-DNA [3] = test: DNA binding by UV–visible absorption titration; parameters: species or system calf; conditions: for % H (hypochromism) / Δλ nm (red shift on binding to CT-DNA): compound 50 μM, DNA 0–50 μM, Tris-HCl buffer pH 7.4, 25 °C; for Kb, BH–I (Benesi–Hildebrand method I) / Kb, BH–II (Benesi–Hildebrand method II) / Kb, SK–I (Sakthi–Krause method I) / Kb, SK–II (Sakthi–Krause method II) / Kb, WS–I (Wolfe-Shimmer method I) / Kb, WS–II (Wolfe-Shimmer method II): intrinsic DNA binding constant; for ΔGb°, BH–I / ΔGb°, BH–II / ΔGb°, SK–I / ΔGb°, SK–II / ΔGb°, WS–I / ΔGb°, WS–II: −RT ln Kb, T = 298 K
# Description: The DNA-binding experiment was performed by a UV–visible spectrophotometer by raising the DNA concentration from zero to 50 μM to the given concentration of all samples (50 μM) in Tris-HCl buffer with a pH of 7.4 at 25 °C [21, 22].
# 2.2.2. Evaluation of DNA-binding characteristics
# By increasing the concentration of DNA (0 –50 μM), electronic absorption titrations were performed at the fixed concentration (50 μM) of all test compounds in aqueous media at room temperature. The Tris-HCl buffer (5mM Tris-HCl /50 mM NaCl, pH = 7.2) solution was guaranteed to be pure and contain sufficient amounts of DNA. Using the molar extinction coefficient (6600 M −1 cm−1) at 260 nm, it was also possible to measure the DNA concentration per nucleotide and polynucleotide, denoting that the DNA was sufficiently free of protein by the ratio of absorbance at 260 and 280 nm of roughly 1.8 –1.9 [21, 22]. When raising the concentration of DNA in compound solution, up to the point of completely binding, the decrease in absorbance intensity was carefully observed. […]
# ɛa is represented as the apparent absorption coefficient value for the MLCT band at a specific concentration of deoxyribonucleic acid and evaluated from Abs/[complex]. ɛ f and ɛb are the absorption coefficients for the chemical substance alone and completely interacted with deoxyribonucleic acid, respectively. ∆Amax = (Amax–A0); ∆A=(Ax–A0), where A0, Ax and Amax are denoted as the optical density of chemical substances alone, the middle form, and the completely interacted form with deoxyribonucleic acid, respectively.
# [4] = Hydroxyl radical scavenging assay; assay type: biochemical; conditions: 230 nm
# CT-DNA [5] = test: DNA binding affinity by viscometric (hydrodynamic) titration; parameters: species or system calf; conditions: for Relative Specific Viscosity (η/η0)^1/3: DNA 100 µM; for Slope of (η/η0)^1/3 vs [Compound]/[DNA]: linear plot, R 0.2–1.0
# Description: The hydrodynamic titrations were carried out for all substances along with ethidium bromide (control) at 20, 40, 60, 80, 100 µM concentrations. In the Ostwald viscometer, these substances were also separately treated with the deoxyribonucleic acid solution (100 µM).
# 2.2.4. Viscometry-based titration for investigation of DNA binding
# The Viscometry-based titration measurements were further supportive and delivered data about the binding modes between test compound and DNA base pairs. Nevertheless, it does not deliver definite confirmation for the exact mode of interactions. The experiment performed for all test compounds and ethidium bromide (control) at various concentrations 20, 40, 60, 80, 100 µM and each compound mixed with the CT-DNA solution (100 µM) in the Ostwald viscometer. With an accuracy of 0.01 seconds, a digital stopwatch was used to measure the average flow time. Due to the enhancement of the DNA's overall contour length during the separation of base pairs at intercalation sites, the classical intercalative mode […]
# Generally, the compounds may result in less positive/negative or no viscosity change if they bind with DNA base pairs via […]
# major or minor grooves [ 26]. […]
# compounds via intercalation.
# [6] = C, (-) Chromo bacterium violaceum
# T1 sequence (P02769 25-607): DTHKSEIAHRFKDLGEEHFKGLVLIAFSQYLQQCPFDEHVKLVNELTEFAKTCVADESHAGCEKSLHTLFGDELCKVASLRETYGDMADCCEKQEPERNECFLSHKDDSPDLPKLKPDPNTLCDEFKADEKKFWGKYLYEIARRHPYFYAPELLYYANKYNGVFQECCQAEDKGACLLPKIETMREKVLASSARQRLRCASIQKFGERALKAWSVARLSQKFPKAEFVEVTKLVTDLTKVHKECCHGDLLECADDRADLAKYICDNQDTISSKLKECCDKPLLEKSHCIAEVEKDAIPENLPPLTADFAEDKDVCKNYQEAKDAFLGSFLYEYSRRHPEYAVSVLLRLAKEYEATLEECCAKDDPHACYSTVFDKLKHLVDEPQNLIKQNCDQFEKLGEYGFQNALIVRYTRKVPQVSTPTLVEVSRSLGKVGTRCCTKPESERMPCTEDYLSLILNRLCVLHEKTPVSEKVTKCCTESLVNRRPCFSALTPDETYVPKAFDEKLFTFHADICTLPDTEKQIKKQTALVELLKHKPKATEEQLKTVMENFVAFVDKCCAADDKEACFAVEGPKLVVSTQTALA
smiles,measurement,setting,value
"Oc1ccccc1N=Cc1ccc(N2CCOCC2)cc1 [(HL), 2-(4-morpholinobenzylideneamino)phenol]",Inhibition %,[1]; [6],45%
same,zone of inhibition at 100 µM,[1]; read-out: diameter of clear zone inhibition,11 mm
same,J (normalized spectral overlap integral),BSA,0.8215 × 10^−14 LM^−1cm^3
same,kET (rate of exchange resonance energy transfer),BSA,5.8443
same,r (donor-acceptor separation),BSA,2.6685 nm
same,E (efficiency of energy transfer),BSA,0.3462
same,B (average brightness of the complex-BSA system),BSA,5339.79 M⁻¹ cm⁻¹
same,"R0 (critical distance, 50% energy transfer)",BSA,2.4400 nm
same,Kapp (apparent binding constant),EB–DNA,4.2e+06 M⁻¹
same,"% Inhibition, nitric oxide",[2]; 40 µM,11.42%
same,"% Inhibition, nitric oxide",[2]; 80 µM,18.26%
same,"% Inhibition, nitric oxide",[2]; 120 µM,24.28%
same,"% Inhibition, nitric oxide",[2]; 160 µM,33.21%
same,"% Inhibition, nitric oxide",[2]; 200 µM,40.53%
same,"% Inhibition, nitric oxide",[2]; 240 µM,51.62%
same,% H (hypochromism),CT-DNA [3],46.88%
same,Δλ nm (red shift on binding to CT-DNA),CT-DNA [3],4 nm
same,"Kb, BH–I (Benesi–Hildebrand method I)",CT-DNA [3]; UV–Vis titration,1.0545 (1.0545) × 10^4 M^−1
same,"Kb, BH–II (Benesi–Hildebrand method II)",CT-DNA [3]; UV–Vis titration,1.0545 (1.0545) × 10^4 M^−1
same,"Kb, SK–I (Sakthi–Krause method I)",CT-DNA [3]; UV–Vis titration,8775 M⁻¹
same,"Kb, SK–II (Sakthi–Krause method II)",CT-DNA [3]; UV–Vis titration,15618 M⁻¹
same,"Kb, WS–I (Wolfe-Shimmer method I)",CT-DNA [3]; UV–Vis titration,15169 M⁻¹
same,"Kb, WS–II (Wolfe-Shimmer method II)",CT-DNA [3]; UV–Vis titration,15480 M⁻¹
same,"ΔGb°, BH–I",CT-DNA [3],−22.95 (−22.95) kJmol^−1
same,"ΔGb°, BH–II",CT-DNA [3],−22.95 (−22.95) kJmol^−1
same,"ΔGb°, SK–I",CT-DNA [3],−22.50 kJmol^−1
same,"ΔGb°, SK–II",CT-DNA [3],−23.92 kJmol^−1
same,"ΔGb°, WS–I",CT-DNA [3],−23.85 kJmol^−1
same,"ΔGb°, WS–II",CT-DNA [3],−23.90 kJmol^−1
same,"% Inhibition, hydroxyl radical",[4]; 40 µM,07.26%
same,"% Inhibition, hydroxyl radical",[4]; 80 µM,14.43%
same,"% Inhibition, hydroxyl radical",[4]; 120 µM,25.52%
same,"% Inhibition, hydroxyl radical",[4]; 160 µM,33.86%
same,"% Inhibition, hydroxyl radical",[4]; 200 µM,40.73%
same,"% Inhibition, hydroxyl radical",[4]; 240 µM,50.68%
same,Relative Specific Viscosity (η/η0)^1/3,CT-DNA [5]; R = [Complex]/[DNA] = 0.2,0.61
same,Relative Specific Viscosity (η/η0)^1/3,CT-DNA [5]; R = [Complex]/[DNA] = 0.4,0.67
same,Relative Specific Viscosity (η/η0)^1/3,CT-DNA [5]; R = [Complex]/[DNA] = 0.6,0.75
same,Relative Specific Viscosity (η/η0)^1/3,CT-DNA [5]; R = [Complex]/[DNA] = 0.8,0.85
same,Relative Specific Viscosity (η/η0)^1/3,CT-DNA [5]; R = [Complex]/[DNA] = 1.0,1.01
same,Slope of (η/η0)^1/3 vs [Compound]/[DNA],CT-DNA [5],0.462 and 0.4616
"[Cu+2].[O-]c1ccccc1N=Cc1ccc(N2CCOCC2)cc1.[O-]c1ccccc1N=Cc1ccc(N2CCOCC2)cc1.c1cnc2c(c1)ccc1cccnc12 [(1b), [Cu^II(L)2(phen)]]",diameter of clear zone inhibition,"[1]; C, (-) Chromo bacterium violaceum, 20 µL of 100 µM on 6 mm disc, Control (DMSO) = 6 mm",11 mm
same,Inhibition %,[1]; [6],45%
same,J (normalized spectral overlap integral),BSA,0.6852 × 10^−14 LM^−1cm^3
same,kET (rate of exchange resonance energy transfer),BSA,3.8294
same,r (donor-acceptor separation),BSA,2.7780 nm
same,E (efficiency of energy transfer),BSA,0.2769
same,B (average brightness of the complex-BSA system),BSA,4999.08 M⁻¹ cm⁻¹
same,"R0 (critical distance, 50% energy transfer)",BSA,2.3673 nm
same,Kapp (apparent binding constant),EB–DNA,1e+07 M⁻¹
same,"% Inhibition, nitric oxide",[2]; 40 µM,18.03%
same,"% Inhibition, nitric oxide",[2]; 80 µM,25.43%
same,"% Inhibition, nitric oxide",[2]; 120 µM,35.67%
same,"% Inhibition, nitric oxide",[2]; 160 µM,42.86%
same,"% Inhibition, nitric oxide",[2]; 200 µM,52.29%
same,"% Inhibition, nitric oxide",[2]; 240 µM,66.21%
same,"ΔGb° values, range over all methods (WS, BH, SK)","CT-DNA [3]; DNA binding, UV–Vis titration",−24.58 to −25.12 kJmol^−1
same,% H (hypochromism),CT-DNA [3],56.88%
same,Δλ nm (red shift on binding to CT-DNA),CT-DNA [3],7 nm
same,"Kb, BH–I (Benesi–Hildebrand method I)",CT-DNA [3]; UV–Vis titration,25359 M⁻¹
same,"Kb, BH–II (Benesi–Hildebrand method II)",CT-DNA [3]; UV–Vis titration,25251 M⁻¹
same,"Kb, SK–I (Sakthi–Krause method I)",CT-DNA [3]; UV–Vis titration,20314 M⁻¹
same,"Kb, SK–II (Sakthi–Krause method II)",CT-DNA [3]; UV–Vis titration,21747 M⁻¹
same,"Kb, WS–I (Wolfe-Shimmer method I)",CT-DNA [3]; UV–Vis titration,20610 M⁻¹
same,"Kb, WS–II (Wolfe-Shimmer method II)",CT-DNA [3]; UV–Vis titration,21357 M⁻¹
same,"ΔGb°, BH–I",CT-DNA [3],−25.12 kJmol^−1
same,"ΔGb°, BH–II",CT-DNA [3],−25.11 kJmol^−1
same,"ΔGb°, SK–I",CT-DNA [3],−24.58 kJmol^−1
same,"ΔGb°, SK–II",CT-DNA [3],−24.74 kJmol^−1
same,"ΔGb°, WS–I",CT-DNA [3],−24.61 kJmol^−1
same,"ΔGb°, WS–II",CT-DNA [3],−24.70 kJmol^−1
same,"% Inhibition, hydroxyl radical",[4]; 40 µM,09.94%
same,"% Inhibition, hydroxyl radical",[4]; 80 µM,18.86%
same,"% Inhibition, hydroxyl radical",[4]; 120 µM,32.85%
same,"% Inhibition, hydroxyl radical",[4]; 160 µM,39.84%
same,"% Inhibition, hydroxyl radical",[4]; 200 µM,51.93%
same,"% Inhibition, hydroxyl radical",[4]; 240 µM,62.05%
same,IC50,"[4]; read-out: IC50, hydroxyl radical inhibition",200 µM
same,Relative Specific Viscosity (η/η0)^1/3,CT-DNA [5]; R = [Complex]/[DNA] = 0.2,0.82
same,Relative Specific Viscosity (η/η0)^1/3,CT-DNA [5]; R = [Complex]/[DNA] = 0.4,1.10
same,Relative Specific Viscosity (η/η0)^1/3,CT-DNA [5]; R = [Complex]/[DNA] = 0.6,1.25
same,Relative Specific Viscosity (η/η0)^1/3,CT-DNA [5]; R = [Complex]/[DNA] = 0.8,1.45
same,Relative Specific Viscosity (η/η0)^1/3,CT-DNA [5]; R = [Complex]/[DNA] = 1.0,1.71
same,Slope of (η/η0)^1/3 vs [Compound]/[DNA],CT-DNA [5],1.0805
